Experimental data: patent US20080109040A1, “METHOD OF TREATING ARRHYTHMIAS” (priority 2002, published 2008)

Columns and labels:
[1] = Solubility of ranolazine in aqueous solutions as a function of pH; format: physicochemical
Method: In the following examples solutions of ranolazine in water or solutions with a pH above 6 are made up of ranolazine dihydrochloride. In the discussion portions of the following examples, concentrations of ranolazine found as a result of experiments are calculated as ranolazine free base.

[2] = tested on: transient outward current (Ito); assay: Transient outward current voltage clamp in isolated canine left ventricular myocytes; format: cell-based; conditions: for Effect on Ito: any of the test voltages
[3] = target: T1, rapidly activating component of the delayed rectifier current (IKr) (Canis lupus familiaris, UniProt Q9TSZ3); assay: Whole cell voltage clamp of IKr tail current in isolated canine left ventricular myocytes; format: cell-based
T1 construct: Myocytes were isolated by enzymatic dissociation from a wedge-shaped section of the left ventricular free wall; endogenous in cells; host or cells: isolated canine left ventricular myocytes (epicardial and midmyocardial)
T1 sequence (Q9TSZ3 1-1158): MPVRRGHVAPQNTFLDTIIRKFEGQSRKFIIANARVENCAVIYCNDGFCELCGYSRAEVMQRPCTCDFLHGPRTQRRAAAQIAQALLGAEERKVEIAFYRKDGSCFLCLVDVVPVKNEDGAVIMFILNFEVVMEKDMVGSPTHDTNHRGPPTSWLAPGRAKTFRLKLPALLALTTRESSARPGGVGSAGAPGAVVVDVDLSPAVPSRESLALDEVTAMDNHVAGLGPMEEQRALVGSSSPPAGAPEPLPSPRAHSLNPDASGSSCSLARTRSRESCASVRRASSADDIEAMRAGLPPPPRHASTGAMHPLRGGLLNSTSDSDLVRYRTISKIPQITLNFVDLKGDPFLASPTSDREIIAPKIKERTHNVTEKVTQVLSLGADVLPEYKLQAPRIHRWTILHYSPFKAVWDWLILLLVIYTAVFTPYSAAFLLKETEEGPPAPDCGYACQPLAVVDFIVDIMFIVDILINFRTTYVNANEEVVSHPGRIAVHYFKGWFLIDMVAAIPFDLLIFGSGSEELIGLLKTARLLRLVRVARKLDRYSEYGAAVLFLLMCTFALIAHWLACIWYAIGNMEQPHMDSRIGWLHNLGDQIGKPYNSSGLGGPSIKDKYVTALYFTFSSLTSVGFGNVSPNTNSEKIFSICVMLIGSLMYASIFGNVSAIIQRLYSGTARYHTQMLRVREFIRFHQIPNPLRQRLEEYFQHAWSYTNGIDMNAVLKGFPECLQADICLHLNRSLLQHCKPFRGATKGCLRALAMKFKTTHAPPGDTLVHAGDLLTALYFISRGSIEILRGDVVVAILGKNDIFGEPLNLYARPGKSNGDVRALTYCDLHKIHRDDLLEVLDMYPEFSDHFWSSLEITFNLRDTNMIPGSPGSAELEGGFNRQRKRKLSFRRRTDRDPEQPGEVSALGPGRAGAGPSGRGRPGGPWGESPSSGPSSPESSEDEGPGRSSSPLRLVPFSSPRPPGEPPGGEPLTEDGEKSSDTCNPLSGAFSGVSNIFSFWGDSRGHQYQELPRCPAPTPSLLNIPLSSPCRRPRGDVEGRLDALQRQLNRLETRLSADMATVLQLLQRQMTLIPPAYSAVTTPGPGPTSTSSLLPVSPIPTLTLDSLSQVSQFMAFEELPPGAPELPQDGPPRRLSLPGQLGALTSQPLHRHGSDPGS
Method: Myocytes were isolated by enzymatic dissociation from a wedge-shaped section of the left ventricular free wall supplied by the left circumflex coronary artery. Cells from the epicardial and midmyocardial regions of the left ventricle were used in this study.
Inward rectifier potassium current (IK), slow delayed rectifier potassium current (IKs), and rapid delayed rectifier potassium current (IKr) were recorded at 37° C. using conventional whole cell voltage clamp configuration.
IK1 was measured using an external solution containing 3 μM ouabain and 5 μM nifedipine to block the sodium-potassium pump and L-type calcium current (ICa,L), respectively. […] 5 μM nifedipine was present in the external solution when IKr was being recorded.
Isolated myocytes were placed in a temperature controlled 0.5 ml chamber (Medical Systems, Greenvale, N.Y.) on the stage of an inverted microscope and superfused at a rate of 2 ml/min. […]
IKr was measured as the time-dependent tail current elicited at a potential of −40 mV following a short 250 ms depolarizing pulse to 30 mV. Data are presented as mean ±S.E.M. IK1 was recorded during 900 msec voltage steps applied from a holding potential of −40 mV to test potentials ranging from −100 mV to 0 mV, and was characterized as the 5 msec average of the steady state current at the end of the test pulse.

Q: For `COc1ccccc1OCC(O)CN1CCN(CC(=O)Nc2c(C)cccc2C)CC1` (racemic) [ranolazine, N-(2,6-dimethylphenyl)-4-[2-hydroxy-3-(2-methoxyphenoxy)propyl]-1-piperazineacetamide], which “USP Solubility Class” value ([1]; solution pH 4.81) is on record?
A: Its value is “Freely Soluble”.

Q: What about the “USP Solubility Class” value ([1]; solution pH 4.89) of the same molecule?
A: The value was “Soluble”.

Q: And the “USP Solubility Class” value ([1]; solution pH 4.90)?
A: Its value is “Soluble”.

Q: And the “USP Solubility Class” value ([1]; solution pH 5.04)?
A: Its value is “Soluble”.

Q: And the “USP Solubility Class” value ([1]; solution pH 5.35)?
A: Its value is “Sparingly Soluble”.

Q: And the “USP Solubility Class” value ([1]; solution pH 5.82)?
A: The value was “Slightly soluble”.

Q: And the “USP Solubility Class” value ([1]; solution pH 6.46)?
A: The value was “Slightly soluble”.

Q: What about the “USP Solubility Class” value ([1]; solution pH 6.73) of the same molecule?
A: Its value is “Very slightly soluble”.

Q: And the “USP Solubility Class” value ([1]; solution pH 7.08)?
A: Its value is “Very slightly soluble”.

Q: And the “USP Solubility Class” value ([1]; solution pH 7.59 (unbuffered water))?
A: The value was “Very slightly soluble”.

Q: And the “USP Solubility Class” value ([1]; solution pH 7.79)?
A: Its value is “Very slightly soluble”.

Q: And the “USP Solubility Class” value ([1]; solution pH 12.66)?
A: Its value is “Very slightly soluble”.

Q: What about the “Effect on Ito” value ([2]; ranolazine 10 μM) of the same molecule?
A: Its value is “no effect”.

Q: And the “Effect on Ito” value ([2]; ranolazine 20 μM)?
A: The value was “no effect”.

Q: What about the “Reduction of peak Ito” value ([2]; ranolazine 50 μM, 4 min) of the same molecule?
A: The value was “less than 10”.

Q: What about the “Reduction of Ito” value ([2]; ranolazine 50 μM, test potential 10 mV) of the same molecule?
A: The value was 10±2%.

Q: What about the “Reduction of Ito” value ([2]; ranolazine 100 μM, test potential 0 mV) of the same molecule?
A: Its value is 16±3%.

Q: And the “Reduction of Ito” value ([2]; ranolazine 100 μM, test potential 10 mV)?
A: Its value is 17±4%.

Q: And the “Block of IKr” value ([3]; ranolazine 50 μM)?
A: The value was “almost completely blocked”.

Q: And the IC50 ([3]; tail current at −40 mV after 250 msec pulse to 30 mV, read-out: IC50 for inhibition of IKr tail current)?
A: Its IC50 is 11.5 µM.
